Consider 15 compounds from patent US9802960B2 (MILLENNIUM PHARMACEUTICALS, INC., priority 2014, dated 2017).

The target of the test is Human VPS34 (Homo sapiens (Human), UniProt Q8NEB9). Nature of the test: Human VPS34 enzyme assay (Adapta TR-FRET). In kind it is biochemical. The following applies: compound concentration 1.11 μM; read-out: Percent Inhibition.
Human VPS34, sequence (Q8NEB9 whole entry): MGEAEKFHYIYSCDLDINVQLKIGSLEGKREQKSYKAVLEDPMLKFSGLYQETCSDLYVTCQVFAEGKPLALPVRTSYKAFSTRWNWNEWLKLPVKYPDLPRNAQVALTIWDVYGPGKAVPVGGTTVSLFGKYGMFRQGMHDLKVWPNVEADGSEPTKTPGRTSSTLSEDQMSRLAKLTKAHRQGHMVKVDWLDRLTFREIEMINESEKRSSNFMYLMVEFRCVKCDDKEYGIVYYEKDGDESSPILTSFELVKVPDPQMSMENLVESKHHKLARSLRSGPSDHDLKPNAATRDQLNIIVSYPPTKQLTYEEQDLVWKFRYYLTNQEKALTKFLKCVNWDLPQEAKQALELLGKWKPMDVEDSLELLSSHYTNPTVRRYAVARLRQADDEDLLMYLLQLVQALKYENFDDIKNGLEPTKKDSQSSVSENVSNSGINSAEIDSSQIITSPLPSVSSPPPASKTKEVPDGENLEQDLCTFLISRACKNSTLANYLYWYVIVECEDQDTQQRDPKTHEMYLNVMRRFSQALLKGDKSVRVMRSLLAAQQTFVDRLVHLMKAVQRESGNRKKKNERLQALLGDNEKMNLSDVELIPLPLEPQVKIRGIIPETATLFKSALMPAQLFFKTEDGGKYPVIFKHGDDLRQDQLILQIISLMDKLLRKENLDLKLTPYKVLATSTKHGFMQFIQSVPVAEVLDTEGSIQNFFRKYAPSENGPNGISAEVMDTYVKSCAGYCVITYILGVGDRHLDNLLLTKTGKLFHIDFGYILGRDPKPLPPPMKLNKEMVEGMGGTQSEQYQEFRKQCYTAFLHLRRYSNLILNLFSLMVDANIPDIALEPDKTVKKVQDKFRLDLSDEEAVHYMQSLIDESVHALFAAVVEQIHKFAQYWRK
For the compound `CC(=O)Nc1cc(-c2cnc(C)c(N3CCCNC3=O)c2)ccn1` [Compound I-460, N-[6-methyl-5-(2-oxotetrahydropyrimidin-1 (2H)-yl)-3,4′-bipyridin-2′-yl]acetamide], the inhibition at 1.11 µM was 60%.

Take `CC(=O)Nc1cc(-c2cncc(S(=O)(=O)NC(C)(C)C)c2C)ccn1` [Compound I-462, N-(5-(N-(tert-butyl)sulfamoyl)-4-methyl-[3,4′-bipyridin]-2′-yl)acetamide]: the inhibition at 1.11 µM is 98%.

In the case of `CC(=O)Nc1cc(-c2cnc(C)c(NS(=O)(=O)c3c(Cl)cccc3Cl)c2)ccn1` [Compound I-463, N-(5-{[(2,6-dichlorophenyl)sulfonyl]amino}-6-methyl-3,4′-bipyridin-2′-yl)acetamide], the inhibition at 1.11 µM was over 99%.

As for `CC(=O)Nc1cc(-c2cncc(S(=O)(=O)Nc3ccc(F)cc3F)c2)ccn1` [Compound I-464, N-{5-[(2,4-difluorophenyl)sulfamoyl]-3,4′-bipyridin-2′-yl}acetamide], the inhibition at 1.11 µM is over 99%.

In the case of `CC(=O)Nc1cc(-c2cnc(C)c(NS(=O)(=O)c3cc(Cl)sc3Cl)c2)ccn1` [Compound I-465, N-(5-{[(2,5-dichloro-3-thienyl)sulfonyl]amino}-6-methyl-3,4′-bipyridin-2′-yl)acetamide], the inhibition at 1.11 µM was found to be 97%.

With `Cc1c(-c2ccnc(Nc3ccnc(C4CC4)n3)c2)cnc(Cl)c1C(=O)N1CC(C)(C)C1` [Compound I-466, {6-chloro-2′-[(2-cyclopropylpyrimidin-4-yl)amino]-4-methyl-3,4′-bipyridin-5-yl}(3,3-dimethylazetidin-1-yl)methanone], the inhibition at 1.11 µM stood at 92%.

Regarding `CC(=O)Nc1cc(-c2cnc(Cl)c(N3CCCN(C)S3(=O)=O)c2)ccn1` [Compound I-467, N-[6-chloro-5-(6-methyl-1,1-dioxido-1,2,6-thiadiazinan-2-yl)-3,4′-bipyridin-2′-yl]acetamide], the inhibition at 1.11 µM was over 99%.

Turning to `CC(=O)Nc1cc(-c2cncc(S(=O)(=O)NC34CC5CC(CC(C5)C3)C4)c2)ccn1` [Compound I-468, N-[5-(adamantan-1-ylsulfamoyl)-3,4′-bipyridin-2′-yl]acetamide], the inhibition at 1.11 µM is over 99%.

Consider `CCc1c(-c2ccnc(NC(C)=O)c2)cnc(Cl)c1NS(=O)(=O)c1ccc(F)cc1F` [Compound I-469, N-(6-chloro-5-{[(2,4-difluorophenyl)sulfonyl]amino}-4-ethyl-3,4′-bipyridin-2′-yl)acetamide], for which the inhibition at 1.11 µM was over 99%.

For the compound `COc1ncc(-c2ccnc(NC(C)=O)c2)cc1S(=O)(=O)NC12CC(C1)C2` [Compound I-470, N-[5-(bicyclo[1.1.1]pent-1-ylsulfamoyl)-6-methoxy-3,4′-bipyridin-2′-yl]acetamide], the inhibition at 1.11 µM is over 99%.

For `Cc1nccc(Nc2cc(-c3cnc(C)c(OC4CCCC4)c3)ccn2)n1` [Compound I-471, 5-(cyclopentyloxy)-6-methyl-N-(2-methylpyrimidin-4-yl)-3,4′-bipyridin-2′-amine], the inhibition at 1.11 µM was 98%.

`CC(=O)Nc1cc(-c2cncc(Nc3ncco3)c2)ccn1` [Compound I-472, N-[5-(1,3-oxazol-2-ylamino)-3,4′-bipyridin-2′-yl]acetamide]: the inhibition at 1.11 µM was 96%.

On to `CC(=O)Nc1cc(-c2cnc(Cl)c(N3CCCNS3(=O)=O)c2C)ccn1` [Compound I-473, N-[6-chloro-5-(1,1-dioxido-1,2,6-thiadiazinan-2-yl)-4-methyl-3,4′-bipyridin-2′-yl]acetamide], for which the inhibition at 1.11 µM was 87%.

For the compound `CC(=O)Nc1cc(-c2cncc(S(=O)(=O)N3CCC3)c2)ccn1` [Compound I-474, N-[5-(azetidin-1-ylsulfonyl)-3,4′-bipyridin-2′-yl]acetamide], the inhibition at 1.11 µM was determined as 89%.

Turning to `Cc1nccc(Nc2cc(-c3cnc(C)c(Oc4ccccc4)c3)ccn2)n1` [Compound I-475, 6-methyl-N-(2-methylpyrimidin-4-yl)-5-phenoxy-3,4′-bipyridin-2′-amine], the inhibition at 1.11 µM is over 99%.
